# Experimental data as given in patent US20210010086A1, “MNK BIOMARKERS AND USES THEREOF” (eFFECTOR Therapeutics, Inc., priority 2015, published 2021).
# Assays:
# [1] = system: eIF4E phosphorylation (p-eIF4E); assay: Immunoblotting of eIF4E phosphorylation in TMD8 cells; assay type: cell-based, human
# Method: (§1) TMD8 human diffuse large B-cell lymphoma line was cultured in RPMI media supplemented with penicillin G (100 U/ml), streptomycin (100 μg/ml), 10% FBS in a humidified atmosphere of 5% CO2 maintained at 37° C. • (b) Drug Treatment
# (§2) TMD8 cells were seeded prior to drug treatment. The following day, cells were treated with either DMSO (vehicle control) or MNK inhibitor (Compound 107) at the appropriate dose and time. • (c) Immunoblotting
# (§3) Cells were spun down and washed with PBS and lysed in 1× RIPA buffer (Thermo Fisher) for 15 min at 4° C. Lysates were sonicated briefly and clarified by centrifugation for 15 min at 14,000 rpm and supernatants were collected. Protein concentration in the soluble fraction was determined by BCA protein assay (Thermo Scientific). 20 μg of protein were resolved on 4-20% Bis-Tris gradient gel (Invitrogen) and transferred to nitrocellulose membrane. The resulting blots were blocked for 1 hr at room temperature with Odyssey blocking solution (LI-COR) and then incubated with anti-phospho-eIF4E (Millipore), anti-eIF4E (Santa Cruz), anti-CCND3 (Cell Signaling) or anti-IRF7 (Cell Signaling) at 4° C. overnight. I3-actin was used as a loading control. […] The blots were then washed and scanned, specific proteins were detected by using the LI-COR Odyssey infrared imager. • (d) Non-Radioactive Nascent Protein Synthesis Assay
# Cyclin D3 = assay: Immunoblotting of cyclin D3 protein in TMD8 cells; assay type: cell-based, human; conditions: increasing concentrations, 48 hours
# Method: as §1, §2, §3
# IRF7 = assay: Immunoblotting of IRF7 protein in TMD8 cells; assay type: cell-based, human; conditions: 48 hours, FIG. 6
# Method: as §1, §2, §3
# TMD8 cells [2] = assay: Non-radioactive nascent protein synthesis assay (AHA incorporation); assay type: cell-based, human
# Method: as §1, §2
# Newly synthesized proteins were detected by using the CLICK-IT Biotin Protein Analysis Detection Kit (Life Technologies; C33372) according to the manufacturer's protocol. Briefly, cells were rinsed with PBS once and incubated in methionine-free media for 30 min in the presence of the compound before being pulsed with the nonradioactive azide-containing methionine analogue AHA for 2 hrs. Cell lysates were then collected for the labeling reactions. The newly synthesized, AHA-incorporated protein was crosslinked to alkyne-derivatized biotin by a copper (I)—catalyzed cycloaddition (CLICK-IT) according to the manufacturer's instructions (Life Technologies). Following the labeling reactions, proteins were precipitated and quantified and subsequently subjected to immunoblotting analysis. Anti-streptavidin-HRP was used to detect newly synthesized proteins that contained biotin-conjugated AHA. Amount of newly synthesized proteins can be quantified by densitometry. • (e) Polysome Profiling
# TMD8 cells [3] = assay: Polysome profiling; assay type: cell-based, human; conditions: 0.3 or 10 μM, 3 or 48 hours
# Method: TMD8 human diffuse large B-cell lymphoma line was cultured in RPMI media supplemented with penicillin G (100 U/ml), streptomycin (100 μg/ml), 10% FBS in a humidified atmosphere of 5% CO2 maintained at 37° C. • (b) Drug Treatment TMD8 cells were seeded prior to drug treatment. The following day, cells were treated with either DMSO (vehicle control) or MNK inhibitor (Compound 107) at the appropriate dose and time. • (c) Immunoblotting Cells were washed with cold PBS supplemented with cycloheximide and lysed with 1× mammalian cell lysis buffer for 10 minutes on ice. Lysates were clarified by centrifugation for 10 minutes at 14,000 rpm and supernatants were collected. The clarified lysate was loaded onto a 10-50% sucrose gradient containing 0.1 mg/ml cycloheximide (gradients were prepared using a BioComp Gradient Station) and centrifuged at 40,000 rpm for 2 hours at 4° C. using a SW40Ti rotor in a BECKMAN COULTER Optima L8-[…] ultra centrifuge. Polysome fractions were isolated using the BioComp Gradient Station. • (f) Ribosome Profiling
# TMD8 cells [4] = assay: Ribosome profiling (translational rate RPF, translational efficiency, mRNA); assay type: cell-based, human; conditions: for # Genes Down Regulated / # Genes Up Regulated: 10 μM
# Method: as §1, §2
# Ribosomal profiling allows for measurement of changes in transcription and translation on a genome-wide basis accompanying inhibition of MNK with Compound 107 treatment of human DLBCL cells. Ribosome profiles of the Compound 107 treated TMD8 cells (about 3×10^6 cells/10 cm plate were harvested for ribosome profiling following drug treatment) were prepared and analyzed for changes in translational efficiencies with respect to potential disease-associated cellular changes accompanying MNK inhibition.
# Briefly, cells were washed with cold PBS supplemented with cycloheximide and lysed with 1× mammalian cell lysis buffer for 10 minutes on ice. Lysates were clarified by centrifugation for 10 minutes at 14,000 rpm and supernatants were collected. Cell lysates were processed to generate ribosomal protected fragments and total mRNA according to the instructions included with the ARTSEQ Ribosome Profiling Kit (Illumina). Sequencing of total RNA (RNA) and of ribosome-protected fragments of RNA (RPF) was carried out using RNA-Seq methodology according to the manufacturer's instructions (Illumina). To analyze the ribosomal profiles, RNA-Seq reads were processed with tools from the FASTX-Toolkit (fastq quality trimmer, fastx clipper and fastx trimmer). Unprocessed and processed reads were evaluated for a variety of quality measures using FastQC. Processed reads were mapped to the human genome using Tophat. Gene-by-gene assessment of the number of fragments strictly and uniquely mapping to the coding region of each gene was conducted using HTSeq-count, a component of the HTSeq package. Differential analyses of Compound 107 treatment of TMD8 cells were carried out with the software packages DESeq for transcription (RNA counts) and translational rate (RPF counts) and BABEL (Olshen 2013) for translational efficiency based upon ribosomal occupancy (RPF counts) as a function of RNA level (RNA counts). The Log2 fold change in translational efficiency (TE) between drug treated and control is determined from the Log2 fold change difference in RPF and RNA values (drug treated versus to control).
# Genes with low counts in either RPF or RNA were excluded from differential analyses. Biological process classification was done using Gene Ontology term analysis.
# TMD8 cells were treated with DMSO or Compound 107 (0.3 or 10 μM) and cell lysates from two biological replicates were collected after 3 or 48 hours after treatment. The cell lysates were divided into two fractions and processed to quantitate the drug effects on the total mRNA (transcriptome) or RNase digested to generate the ribosome protected fragments (translatome). The raw sequencing counts were analyzed using DESeq analysis to determine differential expression or differential ribosome occupancy between DMSO and Compound 107 treatment and are reported as the loge fold change. Quantitation of the ribosome protected fragments (RPF) directly reflects the extent that a given transcript is bound by ribosomes and is a measure of the drug effects on translational rate.
# Loge fold change in TE values are calculated from the difference in loge fold change in translational rate (RPF) between drug treated and control, and the loge fold change in total mRNA (drug treated vs. control). Evaluation of TE results in normalizing translation changes to transcript abundance. The statistical significance for TE values was determined using Babel software which was developed for assessing the significance of changes in translational regulation between conditions.
# TMD8 cells [5] = assay: Proliferation of TMD8 cells; assay type: cell-based; conditions: Homo sapiens
# TMD8 cells [6] = assay: Cell survival of TMD8 cells; assay type: cell-based, human; conditions: increasing concentrations, data not shown
# LAG-3 = LAG-3 protein expression in TMD8 cells; assay type: cell-based, human; conditions: data not shown
# activated T cells = assay: Cell surface PD-1 and LAG-3 on CD3/CD28 activated T cells; assay type: cell-based
# TMD8 cells [7] = assay: Cytokine/chemokine protein expression in TMD8 cells; assay type: cell-based, human
# [8] = system: CD3/CD28 activated T cells; assay: Cytokines/chemokines in CD3/CD28 activated T cells; assay type: cell-based
# eIF4F complex = assay: eIF4G bound to eIF4E (eIF4F complex) in TMD8 cells; assay type: cell-based, human; conditions: increased concentrations
# [9] = 3 hour, Translational Efficiency
# [10] = 3 hour, Translational Rate (RPF)
# [11] = 48 hour, Translational Efficiency
# [12] = 48 hour, Translational Rate (RPF)
compound,measurement,setting,value
Cc1cc(Nc2cc(N)ncn2)c(=O)n2c1C(=O)NC21CCCCC1.Cl [Compound 107],EC50,"[1]; Homo sapiens, TMD8 cell line, study report ECB-003, read-out: EC50 for inhibition of p-eIF4E",9.7 nM
same,inhibition of eIF4E phosphorylation (western blot),"[1]; TMD8 cells, 0.3-10 μM, 3 or 48 hours",essentially complete inhibition
same,cyclin D3 protein level,Cyclin D3,reduction in cyclin D3
same,IRF7 at the protein level,IRF7,decreased
same,global protein synthesis rates,TMD8 cells [2]; 10 μM for 48 hours,modest reduction
same,global protein synthesis,TMD8 cells [2]; 0.3 or 10 μM for 3 hours and 0.3 μM for 48 hours,no impact
same,global protein synthesis,TMD8 cells [2]; 3 hour treatment duration,negligible effects
same,polysome to monosome distribution,TMD8 cells [3],not observed to alter
same,# Genes Down Regulated,TMD8 cells [4]; [9],24
same,# Genes Up Regulated,TMD8 cells [4]; [9],27
same,# Genes Down Regulated,TMD8 cells [4]; [10],58
same,# Genes Up Regulated,TMD8 cells [4]; [10],64
same,# Genes Down Regulated,TMD8 cells [4]; [11],31
same,# Genes Up Regulated,TMD8 cells [4]; [11],15
same,# Genes Down Regulated,TMD8 cells [4]; [12],123
same,# Genes Up Regulated,TMD8 cells [4]; [12],92
same,number of the 123 MNK-sensitive genes also down regulated at the mRNA expression level,"TMD8 cells [4]; 48 hours, log2≤−0.75, p-value <0.01",51
same,number of genes selectively down regulated at the translational level in the absence of substantial transcript changes,"TMD8 cells [4]; 48 hours, log2≤−0.75, p-value <0.05",27
same,translational efficiency of 3 hour gene set at 300 nM compared with 10 μM,"TMD8 cells [4]; TMD8 cells, 3 hours, FIG. 7",equal or lesser extent
same,PD-1 translationally down regulated,"TMD8 cells [4]; TMD8 cells, p-value=0.033, below significance cutoff",~2 fold
same,EC50,TMD8 cells [5],3300 nM
same,cell survival,TMD8 cells [6],promoted cell survival
same,expression of LAG-3 at the protein level,LAG-3,selective decrease
same,cell surface levels of the immune checkpoint inhibitors PD-1 and LAG-3,activated T cells; CD3/CD28 activated T cells,reduction
same,levels of PD-1 on the surface of activated T cells,activated T cells; data not shown,reduced
same,"cytokines evaluated (TNFα, IL6, IL10)",TMD8 cells [7]; DLBCL cell line TMD8,modulation of one or more of the cytokines evaluated
same,"cytokine/chemokine biomarkers (CXCL10, IL6 and IL10) at the protein expression level",TMD8 cells [7]; data not shown,down regulated
same,"select cytokines/chemokines (TNFα, IL10, CXCL10)",[8],reduction
same,eIF4G bound to eIF4E,eIF4F complex,decrease
